# Measurements reported in patent publication US10407414B2, “Mannose derivatives for treating bacterial infections” (priority 2015, dated 2019).
# How the values were obtained:
# [1] = system: bacterial strain LF82 binding to the glycoprotein BSA-(Mannose)3 (FimH antagonists); assay: Bacterial Binding Assay (BBA); type: cell-based, Escherichia coli; settings: read-out: Bacterial Binding Assay IC50 ± SEM
# Summary of the method: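 Luciferase-expressing E. coli LF82, grown overnight at 37 °C without shaking, added as 2×10^8 bacteria/mL suspension with compound in BSA/D-PBS binding buffer. Wells were coated with 0.5–2 μg/mL BSA-(Man)3 and BSA-blocked, with 40–75 min binding at room temperature. After washing, adherent bacteria were read by luciferase luminescence and IC50 derived.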
# [2] = system: AIEC LF82 strain on T84 intestinal epithelial cells; assay: Adhesion assay of AIEC LF82 strain on T84 intestinal epithelial cells (post-incubation test); type: cell-based, E. coli
# Experimental: Residual adhesion is the ratio of level of colonization/decolonization of AIEC measured on cells, and is expressed in percentage. 100% corresponds to the control experiment (NT).
# Adhesion Assays of AIEC LF82 Strain on T84 Intestinal Epithelial Cells
# Compound 56 was evaluated for its ability to inhibit the adhesion of bacteria AIEC LF82 strain on T84 intestinal cells, in order to assess the therapeutic potential of the tested compounds in Crohn's Disease (CD) in particular. The following post-incubation test was used (also described in Brument et al. J. Med. Chem. 2013, 56, 5395-5406), wherein the tested compound is added after the bacteria are brought into contact with the cells. This test thus mimics a use of the compounds in curative treatment of pathologies associated with AIECs, in particular Crohn's disease.
# E. coli strain LF82 isolated from an ileal biopsy of a CD patient was used as the AIEC reference strain. Bacteria were grown overnight in Luria-Bertani (LB) broth, and a bacterial suspension was prepared at a concentration of 6×10^6 bacteria/mL in DMEM/F12/SVF dec 10% medium for adhesion assays. The human intestinal cell line T84, purchased from American Type Culture Collection (ATCC, CCL-248), was maintained in an atmosphere containing 5% CO2 in the culture medium recommended by ATCC. […]
structure (smiles),measurement,setting,value
"Cc1cc(=O)[nH]cc1-c1cc(C#C[C@H]2O[C@H](CO)[C@@H](O)[C@H](O)[C@@H]2O)c2[nH]ncc2c1 [Compound 56, 4-methyl-5-[7-[2-[(2R,3S,4R,5S,6R)-3,4,5-trihydroxy-6-(hydroxymethyl)tetrahydropyran-2-yl]ethynyl]-1H-indazol-5-yl]-1H-pyridin-2-one]",IC50,[1],0.2 ± 0.02 nM
same,decolonization of adherent bacteria,"[2]; at 10 nM, compound added after infection of T84 cells with LF82, 3 h at 37° C.",about 50%
same,activity for the decolonization of the LF82 AIEC from T84 cells,"[2]; from a concentration of 100 nM, FIG. 1",potent activity
